# According to article PMC9600515, “Dual Regulatory Role Exerted by Cyclic Dimeric GMP To Control FsnR-Mediated Bacterial Swimming” (mBio, 2022):
# Key:
# FsnR = biological target: T1, FsnR (Stenotrophomonas maltophilia, UniProt B2FQU0); assay: microscale thermophoresis (MST); type: binding; settings: PBS buffer; labelled protein
# T1 construct: gene Smlt2299; full length, recombinant from E. coli BL21(DE3), C-terminal His6 or GST tag (GST cleaved on column); Red NHS labelled for MST
# RavS = biological target: T2, RavS (Stenotrophomonas maltophilia, UniProt B2FQW5); assay: microscale thermophoresis (MST); type: binding; settings: PBS buffer; 20 nM fluorescein-labeled RavS
# T2 construct: gene Smlt2324; recombinant from E. coli BL21(DE3), C-terminal His6 or GST tag (GST cleaved); phosphorylated His503; labelled for MST
# T2 sequence (B2FQW5 entry or part of it): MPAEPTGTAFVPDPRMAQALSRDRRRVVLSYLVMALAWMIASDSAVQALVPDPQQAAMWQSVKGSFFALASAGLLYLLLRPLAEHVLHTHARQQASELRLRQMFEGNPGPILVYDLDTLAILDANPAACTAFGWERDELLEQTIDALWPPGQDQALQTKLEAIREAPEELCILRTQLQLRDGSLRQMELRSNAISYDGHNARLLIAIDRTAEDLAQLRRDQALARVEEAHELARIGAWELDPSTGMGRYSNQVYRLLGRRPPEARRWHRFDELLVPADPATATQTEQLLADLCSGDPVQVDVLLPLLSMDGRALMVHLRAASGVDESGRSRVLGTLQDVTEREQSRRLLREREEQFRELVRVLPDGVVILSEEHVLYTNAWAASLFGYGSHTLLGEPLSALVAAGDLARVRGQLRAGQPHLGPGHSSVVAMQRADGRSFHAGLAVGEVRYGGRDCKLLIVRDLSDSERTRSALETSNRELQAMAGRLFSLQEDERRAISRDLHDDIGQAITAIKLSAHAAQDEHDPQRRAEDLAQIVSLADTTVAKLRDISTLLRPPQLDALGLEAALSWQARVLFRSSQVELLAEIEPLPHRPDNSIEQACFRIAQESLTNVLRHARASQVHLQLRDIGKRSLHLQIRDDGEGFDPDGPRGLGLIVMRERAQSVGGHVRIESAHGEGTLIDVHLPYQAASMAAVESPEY
# T1 sequence (B2FQU0 entry or part of it): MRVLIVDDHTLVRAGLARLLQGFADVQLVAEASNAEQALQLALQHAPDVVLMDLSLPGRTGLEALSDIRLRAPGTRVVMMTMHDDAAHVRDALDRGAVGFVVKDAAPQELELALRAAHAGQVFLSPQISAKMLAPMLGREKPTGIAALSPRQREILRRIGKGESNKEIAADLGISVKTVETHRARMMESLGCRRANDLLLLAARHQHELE
smiles,measurement,setting,value
Nc1nc2c(ncn2[C@@H]2O[C@@H]3CO[P@](=O)(O)O[C@H]4[C@@H](O)[C@H](n5cnc6c(=O)[nH]c(N)nc65)O[C@@H]4CO[P@](=O)(O)O[C@H]3[C@H]2O)c(=O)[nH]1 [c-di-GMP],Kd,FsnR,3430 ± 1360 nM
same,Kd,RavS,1480 ± 360 nM
